Test results taken from patent US9440969B2, “Compounds and methods for kinase modulation, and indications therefor” (PLEXXIKON INC., priority 2009, dated 2016).

Experiments:
c-Raf-1 = c-Raf-1 (Homo sapiens, UniProt P04049); assay: c-Raf-1 kinase activity assay (AlphaScreen, biotin-MEK1 substrate); settings: 100 μM ATP, 100 nM biotin-MEK1, 45 minutes at room temperature; read-out: Biochemical activity (IC50 μM) c-Raf-1
Procedure: (§1) Assays for biochemical and cell based activity are known in the art, for example, as described in PCT publication WO 2007/002433, the disclosure of which is hereby incorporated by reference as it relates to such assays. For example, the biochemical activity IC50 values are determined with respect to inhibition of B-Raf kinase activity, c-Raf-1 kinase activity, or B-Raf V600E kinase activity, where inhibition of phosphorylation of a peptide substrate is measured as a function of compound concentration. Compounds to be tested are diluted in dimethyl sulfoxide to a concentration of 0.1 mM. These are serially diluted 15 μL into 30 μL of dimethyl sulfoxide seven times in 96 well plates for a total of 8 dilution points, and for each dilution point 1 μL is added to a well of an assay plate. Plates are prepared such that each well in a 384 well plate contains 1 μL of compound in 10 μL, volume with 0.1 ng Raf enzyme (i.e. any of B-Raf, c-Raf-1 or B-Raf V600E, Upstate Biotechnology or prepared by methods known to one of skill in the art), 50 mM HEPES, pH 7.0, 50 mM NaCl, 2 mM MgCl2, 1 mM MnCl2, 0.01% Tween-20, 1 mM DTT, and 100 nM biotin-MEK1 as substrate. The reaction is started with addition of 10 μL of 200 μM ATP (i.e. final 100 μM ATP). After incubation of the kinase reaction for 45 minutes at room temperature, 5 μL/well of Stop Solution is added (25 mM Hepes pH 7.5, 100 mM EDTA, 0.01% BSA with donor beads (Streptavidin coated beads, Perkin Elmer), acceptor beads (Protein A coated, Perkin Elmer), and anti phosphor MEK1/2 antibody (CellSignal), each at final concentration 10 μg/mL). The plates are incubated for 3 hours at room temperature and read on Envision reader (Perkin Elmer). Phosphorylation of Mek1 results in binding of the anti-phosphor-MEK1/2 antibody and association of the donor and acceptor beads such that signal correlates with kinase activity. The signal vs. compound concentration is used to determine the IC50.

B-Raf = B-Raf (Homo sapiens, UniProt P15056); assay: B-Raf kinase activity assay (AlphaScreen, biotin-MEK1 substrate); settings: 100 μM ATP, 100 nM biotin-MEK1, 45 minutes at room temperature; read-out: Biochemical activity (IC50 μM) B-Raf
Sequence of B-Raf (P15056 whole entry): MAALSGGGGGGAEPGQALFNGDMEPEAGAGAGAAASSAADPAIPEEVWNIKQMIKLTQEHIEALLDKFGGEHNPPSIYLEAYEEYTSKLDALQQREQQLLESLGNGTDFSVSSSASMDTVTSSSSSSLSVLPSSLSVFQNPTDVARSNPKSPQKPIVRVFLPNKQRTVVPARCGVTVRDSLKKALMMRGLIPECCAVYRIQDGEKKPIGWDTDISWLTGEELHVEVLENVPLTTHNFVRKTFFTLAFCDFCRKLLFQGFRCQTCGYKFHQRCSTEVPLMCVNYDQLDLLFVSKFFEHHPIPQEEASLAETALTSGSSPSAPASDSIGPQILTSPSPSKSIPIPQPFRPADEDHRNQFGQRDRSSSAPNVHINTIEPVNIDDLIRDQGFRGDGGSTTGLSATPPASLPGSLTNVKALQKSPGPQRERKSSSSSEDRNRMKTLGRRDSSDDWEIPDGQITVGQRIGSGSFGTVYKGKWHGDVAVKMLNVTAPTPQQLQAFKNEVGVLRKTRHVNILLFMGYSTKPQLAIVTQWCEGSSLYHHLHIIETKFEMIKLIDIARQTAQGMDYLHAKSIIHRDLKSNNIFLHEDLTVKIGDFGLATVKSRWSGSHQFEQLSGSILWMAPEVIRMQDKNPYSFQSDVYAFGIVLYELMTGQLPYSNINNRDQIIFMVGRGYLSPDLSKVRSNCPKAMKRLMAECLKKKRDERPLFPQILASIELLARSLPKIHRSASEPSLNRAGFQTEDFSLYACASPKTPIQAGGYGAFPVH
Procedure: as §1

[1] = Relative solubility by turbidity in aqueous buffers (pH 1.5, 4.5, 6.8, 7.4); assay type: physicochemical; settings: for turbidity threshold (L, M, H) 1.4: pH 1.5 buffer (SGF); for turbidity threshold (L, M, H) 4.5: pH 4.5 buffer (SIF); for turbidity threshold (L, M, H) 6.8: pH 6.8 buffer (SIF); for turbidity threshold (L, M, H) 7.4: pH 7.4 buffer (HEPES)
Procedure: As an indication of relative solubility, the turbidity of compounds in aqueous solutions is assessed. To assess possible compound properties in different physiological compartments, such as stomach, intestine, and blood, a series of aqueous buffers with varying pH is used. Thus each compound is diluted into four different physiologically relevant buffers and solution turbidity is measured by spectrophotometry.
Compounds are dissolved at a concentration of 25 mM in dimethyl sulfoxide, then serially diluted 1:1 into a 96 well plate, diluting 10 times in pure dimethyl sulfoxide, with the final well of each row a dimethyl sulfoxide blank. In an assay plate, 99 μL of appropriate buffer is added to each well, and 1 μL of each sample dilution is added to the buffer, achieving a range of final total concentrations in aqueous solutions having different pH. The buffers used are Simulated Gastric Fluid (SGF-pH 1.5) 0.5M NaCl, pH 1.5; Simulated Intestinal fluid (SIF-pH 4.5 and pH 6.8) 0.05M NaH2PO4, pH 4.5 and 6.8; and Hepes Buffer (HEPES-pH 7.4) 10 mM HEPES, 150 mM NaCl, pH 7.4. Control compounds pyrene, estriol and propranolol HCl are also assessed. Plates are spun and then mixed for 1 minute, and the absorbance is read using a Tecan Safire II to read wavelengths in the visible range (490, 535, and 650 nm) at four locations per well, reflecting the degree of turbidity present. The average optical density for each wavelength in each well is graphed vs. compound concentration, and the concentration at which the curve crosses a threshold O.D. of 0.01 for each wavelength is reported as the endpoint turbidity assay result. The average of the three wavelengths is used to compare turbidity of compounds. Compounds are considered to have low solubility if the threshold concentration is <31.3 μM, moderate solubility if the threshold concentration is 31.3 μM to 250 μM, and high solubility if the threshold concentration is >250 μM.
The following table indicates the relative solubility (L=low, M=moderate, H=high) based on turbidity threshold concentration at each pH for exemplary compounds according to the invention: […]

B-Raf V600E = B-Raf V600E (Homo sapiens, UniProt P15056, V600E); assay: B-Raf V600E kinase activity assay (AlphaScreen, biotin-MEK1 substrate); settings: 100 μM ATP, 100 nM biotin-MEK1, 45 minutes at room temperature, read-out: Biochemical activity (IC50 μM) V600E
Sequence of B-Raf V600E (P15056 whole entry V600E): as the sequence (P15056 whole entry) above, with V600E counted along it
Procedure: as §1

Sequence of c-Raf-1 (P04049 whole entry Y340D/Y341D, form open): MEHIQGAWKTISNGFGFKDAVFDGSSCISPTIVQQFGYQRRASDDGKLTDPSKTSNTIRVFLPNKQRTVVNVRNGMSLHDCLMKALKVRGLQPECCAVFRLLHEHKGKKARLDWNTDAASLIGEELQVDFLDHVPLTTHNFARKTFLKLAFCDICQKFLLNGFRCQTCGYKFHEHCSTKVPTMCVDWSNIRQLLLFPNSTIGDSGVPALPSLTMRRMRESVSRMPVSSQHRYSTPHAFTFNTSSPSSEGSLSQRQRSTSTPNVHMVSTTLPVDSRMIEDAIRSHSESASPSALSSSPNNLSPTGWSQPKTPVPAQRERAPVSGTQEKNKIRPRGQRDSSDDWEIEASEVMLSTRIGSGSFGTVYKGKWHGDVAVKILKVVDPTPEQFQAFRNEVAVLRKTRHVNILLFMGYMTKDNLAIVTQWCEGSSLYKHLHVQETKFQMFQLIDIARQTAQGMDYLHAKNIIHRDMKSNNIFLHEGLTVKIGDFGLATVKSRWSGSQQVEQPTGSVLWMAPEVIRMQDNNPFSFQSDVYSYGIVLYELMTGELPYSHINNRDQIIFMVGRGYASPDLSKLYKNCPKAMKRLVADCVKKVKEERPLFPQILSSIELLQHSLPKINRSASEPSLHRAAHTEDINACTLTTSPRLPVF

Compound | IC50 (c-Raf-1) | IC50 (B-Raf) | turbidity threshold (L, M, H) 1.4 [1] | turbidity threshold (L, M, H) 4.5 [1] | turbidity threshold (L, M, H) 6.8 [1] | turbidity threshold (L, M, H) 7.4 [1] | IC50 (B-Raf V600E)
Cc1cc(-c2cnc3[nH]cc(C(=O)c4c(F)ccc(NS(=O)(=O)c5cc(F)ccc5F)c4F)c3c2)n(C)n1 [P-1010, N-{3-[5-(2,5-Dimethyl-2H-pyrazol-3-yl)-1H-pyrrolo[2,3-b]pyridine-3-carbonyl]-2,4-difluoro-phenyl}-2,5-difluoro-benzenesulfonamide] | < 0.1 µM | < 0.1 µM | M (moderate solubility if the threshold concentration is 31.3 μM to 250 μM) | L (low solubility if the threshold concentration is <31.3 μM) | L (low solubility if the threshold concentration is <31.3 μM) | M (moderate solubility if the threshold concentration is 31.3 μM to 250 μM) | < 0.1 µM
Cn1ccc(-c2cnc3[nH]cc(C(=O)c4c(F)ccc(NS(=O)(=O)c5cc(F)ccc5F)c4F)c3c2)n1 [P-1011, N-{2,4-Difluoro-3-[5-(1-methyl-1H-pyrazol-3-yl)-1H-pyrrolo[2,3-b]pyridine-3-carbonyl]-phenyl}-2,5-difluoro-benzenesulfonamide] | < 0.1 µM | < 0.1 µM | L (low solubility if the threshold concentration is <31.3 μM) | L (low solubility if the threshold concentration is <31.3 μM) | M (moderate solubility if the threshold concentration is 31.3 μM to 250 μM) | M (moderate solubility if the threshold concentration is 31.3 μM to 250 μM) | < 0.1 µM
COc1ccc(-c2cnc3[nH]cc(C(=O)c4c(F)ccc(NS(=O)(=O)c5cc(F)ccc5F)c4F)c3c2)c(OC)n1 [P-1406, N-{3-[5-(2,6-Dimethoxy-pyridin-3-yl)-1H-pyrrolo[2,3-b]pyridine-3-carbonyl]-2,4-difluoro-phenyl}-2,5-difluoro-benzenesulfonamide] | < 0.1 µM | < 0.1 µM | L (low solubility if the threshold concentration is <31.3 μM) | L (low solubility if the threshold concentration is <31.3 μM) | L (low solubility if the threshold concentration is <31.3 μM) | L (low solubility if the threshold concentration is <31.3 μM) | < 0.1 µM
CN(C)c1ccc(-c2cnc3[nH]cc(C(=O)c4c(F)ccc(NS(=O)(=O)c5cc(F)ccc5F)c4F)c3c2)cn1 [P-1409, N-{3-[5-(6-Dimethylamino-pyridin-3-yl)-1H-pyrrolo[2,3-b]pyridine-3-carbonyl]-2,4-difluoro-phenyl}-2,5-difluoro-benzenesulfonamide] | < 0.1 µM | < 0.1 µM | L (low solubility if the threshold concentration is <31.3 μM) | L (low solubility if the threshold concentration is <31.3 μM) | L (low solubility if the threshold concentration is <31.3 μM) | L (low solubility if the threshold concentration is <31.3 μM) | < 0.1 µM
COc1ncc(-c2cnc3[nH]cc(C(=O)c4c(F)ccc(NS(=O)(=O)c5cc(F)ccc5F)c4F)c3c2)c(OC)n1 [P-1501, N-{3-[5-(2,4-Dimethoxy-pyrimidin-5-yl)-1H-pyrrolo[2,3-b]pyridine-3-carbonyl]-2,4-difluoro-phenyl}-2,5-difluoro-benzenesulfonamide] | < 0.1 µM | < 0.1 µM | L (low solubility if the threshold concentration is <31.3 μM) | L (low solubility if the threshold concentration is <31.3 μM) | L (low solubility if the threshold concentration is <31.3 μM) | L (low solubility if the threshold concentration is <31.3 μM) | < 0.1 µM
CN(C)c1ncc(-c2cnc3[nH]cc(C(=O)c4c(F)ccc(NS(=O)(=O)c5cc(F)ccc5F)c4F)c3c2)cn1 [P-1502, N-{3-[5-(2-Dimethylamino-pyrimidin-5-yl)-1H-pyrrolo[2,3-b]pyridine-3-carbonyl]-2,4-difluoro-phenyl}-2,5-difluoro-benzenesulfonamide] | < 0.1 µM | < 0.1 µM | L (low solubility if the threshold concentration is <31.3 μM) | L (low solubility if the threshold concentration is <31.3 μM) | L (low solubility if the threshold concentration is <31.3 μM) | L (low solubility if the threshold concentration is <31.3 μM) | < 0.1 µM
CONC(=O)c1cccc(-c2cnc3[nH]cc(C(=O)c4c(F)ccc(NS(=O)(=O)c5cc(F)ccc5F)c4F)c3c2)c1 [P-1704, 3-{3-[3-(2,5-Difluoro-benzenesulfonylamino)-2,6-difluoro-benzoyl]-1H-pyrrolo[2,3-b]pyridin-5-yl}-N-methoxy-benzamide] | < 0.1 µM | < 0.1 µM | L (low solubility if the threshold concentration is <31.3 μM) | L (low solubility if the threshold concentration is <31.3 μM) | L (low solubility if the threshold concentration is <31.3 μM) | L (low solubility if the threshold concentration is <31.3 μM) | < 0.1 µM
CONC(=O)c1ccc(-c2cnc3[nH]cc(C(=O)c4c(F)ccc(NS(=O)(=O)c5cc(F)ccc5F)c4F)c3c2)cc1 [P-1705, 4-{3-[3-(2,5-Difluoro-benzenesulfonylamino)-2,6-difluoro-benzoyl]-1H-pyrrolo[2,3-b]pyridin-5-yl}-N-methoxy-benzamide] | < 0.1 µM | < 0.1 µM | M (moderate solubility if the threshold concentration is 31.3 μM to 250 μM) | L (low solubility if the threshold concentration is <31.3 μM) | L (low solubility if the threshold concentration is <31.3 μM) | L (low solubility if the threshold concentration is <31.3 μM) | < 0.1 µM
